28 compounds from US20130116251A1, “Novel HSP90 Inhibitor” (Nippon Kayaku Kabushiki Kaisha, priority 2005, published 2013) can be followed below.

Test [1] deals with Human breast cancer cells (MCF7). Put plainly: Antiproliferative activity on MCF7 cells (methylene blue method). Conditions: MCF7 cells, 72 hours treatment, 660 nm absorbance after methylene blue staining, read-out: Antiproliferative activity IC50. It is filed as cell-based. As to the method:
Human breast cancer cells (MCF7) were treated with samples of various concentrations of known HSP90 inhibitors (that is, geldanamycin, herbimycin, radicicol and PU3) and the compounds of the present invention for 72 hours to confirm the effect of the triazole derivatives of the present invention on the cell growth. The cell ratio after the drug treatment was evaluated by measuring 660 nm absorbance by a microplate reader (BioRad) after staining the cells with the methylene blue method.
Cells were distributed to wells of 96 well plates at 2000 cells per well and treated with drugs 24 hours later. Further, the medium was removed 72 hours later and the cells were fixed by adding 50 μl of methanol and standing at room temperature for 2 minutes. After removing methanol, 100 μl of a staining solution was added and stained for 30 minutes. After washing 3 times with 200 μl of distilled water, 3% HCl solution was added, and the 660 nm absorbance of methylene blue was measured by a microplate reader (BioRad).
Next, the antiproliferative activity rate (%) was obtained by the formula (2) below.
Antiproliferative activity rate(%)=((B−A)/B)×100 Formula (2)
wherein B is 660 nm absorbance of the sample when the compound of the present invention is not added, and A is 660 nm absorbance of the sample when the compound of the present invention is added.
From the concentration of the triazole derivative of the present invention and the antiproliferative activity rate, the concentration was obtained using the above formula, at which the cell growth was suppressed by 50% by comparing with the control, and termed an IC50 value.
The antiproliferative activity rate (%) was obtained for SH-b04, SH-b05 and SH-b06 described above by a similar manner to that of the triazole derivatives of the present invention.

The next test concerns the target rHSP90. Kind of test: HSP90 binding assay (BIACORE SPR; inhibition of binding between rHSP90 and fixed herbimycin A). Conditions: concentration inhibiting binding between rHSP90 (50 μg/mL) and fixed herbimycin A by 50%, BIACORE-X SPR; read-out: HSP90 inhibitory activity IC50. From the text: The HSP90 binding assay system is a system for detecting the change of mass as SPR signal caused by the binding between herbimycin A fixed on a sensor chip and rHSP90 by BIACORE-X, in which 17-(6-amino hexylamino)herbimycin A is fixed through a carboxyl group on the surface of the sensor chip (CM5, BIACORE) on which carboxymethyldextran has been introduced. The method was according to the protocol of BIACORE. In addition, 17-(6-aminohexylamino)herbimycin A was synthesizes as described below.
rHSP90 (Stressgen Biotechnologies Corp., Victoria, BC Canada) at 50 μg/mL was exposed for 10 seconds to the surface of the sensor chip on which herbimycin A was fixed and the SPR signal (numerical value of interaction) was detected.
After mixing rHSP90 protein (5×10^−7M (50 μg/mL)) with the triazole derivative of the present invention, the mixture was exposed for 10 seconds to the surface of the sensor chip on which herbimycin A was fixed, and the SPR signal was measured by BIACORE-X.
Next, using following formula (1), the inhibitory activity (binding inhibition rate (%)) of the compound of the present invention to the binding between rHSP90 and fixed herbimycin A was obtained.
binding inhibition rate(%)=((b−s)/b)×100 Formula (1)
wherein b is the SPR signal when the compound of the present invention is not added to the sample: s is the SPR signal when the compound of the present invention is added to the sample.

SMILES strings stand for the structures. Structures can show the parent of a compound that is named as a salt. Where two headings read alike, the source gives them in different places.

As usually defined, the IC50 is the concentration that gives 50% inhibition. For `COc1ccc(-n2c(-c3cc(C(C)C)c(O)cc3O)nnc2S(=O)(=O)CC2CCCCO2)cc1` (centres unmarked) [SFN7-a08, 4-isopropyl-6-[4-(4-methoxy-phenyl)-5-(tetrahydro-pyran-2-ylmethanesulfonyl)-4H-[1,2,4]triazol-3-yl]-benzene-1,3-diol], the IC50 in test [1] (Homo sapiens, MCF7, 72 h) was 0.72 µM; on rHSP90, 0.72 µM.

As for `COCCOCCS(=O)(=O)c1nnc(-c2cc(C(C)C)c(O)cc2O)n1-c1ccc(OC)cc1` [SFN8-a08, 4-isopropyl-6-{5-[2-(2-methoxy-ethoxy)-ethanesulfonyl]-4-(4-methoxy-phenyl)-4H-[1,2,4]triazol-3-yl}-benzene-1,3-diol], the IC50 is 2.4 µM in test [1] (Homo sapiens, MCF7, 72 h) and 0.6 µM on rHSP90.

For `CC(C)c1cc(-c2nnc(S(C)(=O)=O)n2-c2ccc(C[N+]3([O-])CCOCC3)cc2)c(O)cc1O` [SFN-a07, 4-isopropyl-6-{5-methanesulfonyl-4-[4-(morpholin-4-oxid-4-ylmethyl)-phenyl]-4H-[1,2,4]triazol-3-yl}benzene-1,3-diol], the IC50 came to 24 µM in test [1] (Homo sapiens, MCF7, 72 h) and 0.32 µM at rHSP90.

On to `CC(C)c1cc(-c2nnc(S(C)(=O)=O)n2C(C)C)c(O)cc1O` [SFN-a21, 4-isopropyl-6-(4-isopropyl-5-methanesulfonyl-4H-[1,2,4]triazol-3-yl)-benzene-1,3-diol], for which the IC50 stood at 16 µM in test [1] (Homo sapiens, MCF7, 72 h) and 0.23 µM at rHSP90.

Consider `CC(C)c1cc(-c2nnc(S(C)(=O)=O)n2CCCN2CCOCC2)c(O)cc1O` [SFN-a27, 4-isopropyl-6-[5-methanesulfonyl-4-[3-(molpholin-4-yl)-propyl]-4H-[1,2,4]triazol-3-yl]-benzene-1,3-diol], for which the IC50 in test [1] (Homo sapiens, MCF7, 72 h) is > 20 µM; on rHSP90, 1.6 µM.

On to `CC(C)c1cc(-c2nnc(S(C)(=O)=O)n2CCc2ccc[n+]([O-])c2)c(O)cc1O` [SFN-a29, 5-(2,4-dihydroxy-5-isopropylphenyl)-4-[2-(1-oxopyridin-3-yl)ethyl]-3-methanesulfonyl-4H-[1,2,4]triazole], for which the IC50 in test [1] (Homo sapiens, MCF7, 72 h) was > 20 µM; on rHSP90 it was 3.6 µM.

On to `CC(C)c1cc(-c2nnc(S(C)(=O)=O)n2CCCN2CCCC2=O)c(O)cc1O` [SFN-a30], for which the IC50 in test [1] (Homo sapiens, MCF7, 72 h) is > 20 µM; on rHSP90, 2.4 µM.

In the case of `COCCn1c(-c2cc(C(C)C)c(O)cc2O)nnc1S(C)(=O)=O` [SFN-a32, 4-isopropyl-6-[5-methanesulfonyl-4-(2-methoxy-ethyl)-4H-[1,2,4]triazol-3-yl]-benzene-1,3-diol], the IC50 was > 20 µM in test [1] (Homo sapiens, MCF7, 72 h) and 1.9 µM at rHSP90.

As for `CC(C)c1cc(-c2nnc(S(C)(=O)=O)n2C(CO)CO)c(O)cc1O` [SFN-a33, 4-[4-(2-hydroxy-1-hydroxymethyl-ethyl)-5-methanesulfonyl-4H-[1,2,4]triazol-3-yl]-6-isopropyl-benzene-1,3-diol], the IC50 in test [1] (Homo sapiens, MCF7, 72 h) is 15 µM; at rHSP90, 1.3 µM.

Consider `CC(C)c1cc(-c2nnc([S+](C)[O-])n2-c2ccc(C[N+]3([O-])CCOCC3)cc2)c(O)cc1O` (centres unmarked) [SFX-a07-TF, 4-isopropyl-6-{5-methylsulfinyl-4-[4-(morpholin-4-oxid-4-ylmethyl)-phenyl]-4H-[1,2,4]triazol-3-yl}-benzene-1,3-diol trifluoroacetate], for which the IC50 in test [1] (Homo sapiens, MCF7, 72 h) was found to be 12 µM; on rHSP90, 0.064 µM.

`COc1ccc(-n2c(-c3cc(C(C)C)c(O)cc3O)nnc2[S+](C)[O-])cc1` (centres unmarked) [SFX-a08, 4-isopropyl-6-[5-methylsulfinyl-4-(4-methoxy-phenyl)-4H-[1,2,4]triazol-3-yl]-benzene-1,3-diol]: the IC50 in test [1] (Homo sapiens, MCF7, 72 h) was 0.36 µM; on rHSP90, 0.12 µM.

For `CC(C)c1cc(-c2n[nH]c(=S)n2-c2ccc(N3CCOCC3)cc2)c(O)cc1O` [SH-a01, 4-isopropyl-6-{5-mercapto-4-[4-(morpholin-4-yl)-phenyl]-4H-[1,2,4]triazol-3-yl}-benzene-1,3-diol], the figures for the IC50 (in test [1]; at rHSP90) were 0.014 µM and 0.14 µM, respectively.

In the case of `CC(C)c1cc(-c2n[nH]c(=S)n2-c2ccc(N3CCOCC3)cc2)c(O)cc1O` [SH-a01-TF, 4-isopropyl-6-{5-mercapto-4-[4-(morpholin-4-yl)-phenyl]-4H-[1,2,4]triazol-3-yl}-benzene-1,3-diol], the IC50 in test [1] (Homo sapiens, MCF7, 72 h) was determined as 0.02 µM; on rHSP90, 0.19 µM.

As to `CC(C)c1cc(-c2n[nH]c(=S)n2-c2ccc(Br)cc2)c(O)cc1O` [SH-a03, 4-[4-(4-bromo-phenyl)-5-mercapto-4H-[1,2,4]triazol-3-yl]-6-isopropyl-benzene-1,3-diol], the IC50 worked out at 0.15 µM in test [1] (Homo sapiens, MCF7, 72 h) and 0.15 µM at rHSP90.

Turning to `COc1ccc(-n2c(-c3cc(C(C)C)c(O)cc3O)n[nH]c2=S)cc1` [SH-a08, 5-(2,4-dihydroxy-5-isopropyl-phenyl)-4-(4-methoxy-phenyl)-2,4-dihydro-[1,2,4]-triazol-3-thione], the IC50 in test [1] (Homo sapiens, MCF7, 72 h) came out at 0.057 µM; on rHSP90, 0.085 µM.

As for `CC(C)c1cc(-c2n[nH]c(=S)n2-c2ccccc2)c(O)cc1O` [SH-a15], the IC50 in test [1] (Homo sapiens, MCF7, 72 h) came out at 0.04 µM; on rHSP90, 0.25 µM.

In the case of `CC(C)c1cc(-c2n[nH]c(=S)n2-c2cccnc2)c(O)cc1O` [SH-a16], the IC50 was determined as 0.24 µM in test [1] (Homo sapiens, MCF7, 72 h) and 0.14 µM at rHSP90.

For the compound `CC(C)c1cc(-c2n[nH]c(=S)n2C(C)C)c(O)cc1O` [SH-a21, 5-(2,4-dihydroxy-5-isopropyl-phenyl)-4-isopropyl-2,4-dihydro-[1,2,4]-triazol-3-thione], the half-inhibitory concentration (IC50) was 0.4 µM in test [1] (Homo sapiens, MCF7, 72 h) and 0.22 µM at rHSP90.

As to `CC(C)Cn1c(-c2cc(C(C)C)c(O)cc2O)n[nH]c1=S` [SH-a22, 5-(2,4-dihydroxy-5-isopropyl-phenyl)-4-isobutyl-2,4-dihydro-[1,2,4]triazol-3-thione], the IC50 in test [1] (Homo sapiens, MCF7, 72 h) worked out at 0.45 µM; at rHSP90 it was 0.27 µM.

As for `CC(C)c1cc(-c2n[nH]c(=S)n2C2CCCCC2)c(O)cc1O` [SH-a23, 5-(2,4-dihydroxy-5-isopropyl-phenyl)-4-cyclohexyl-2,4-dihydro-[1,2,4]triazol-3-thione], the IC50 came out at 0.33 µM in test [1] (Homo sapiens, MCF7, 72 h) and 0.42 µM at rHSP90.

As to `CC(C)c1cc(-c2n[nH]c(=S)n2C2CCN(Cc3ccccc3)CC2)c(O)cc1O` [SH-a25•TFA], the IC50 in test [1] (Homo sapiens, MCF7, 72 h) was 0.89 µM; at rHSP90 it was 1 µM.

On to `CC(C)c1cc(-c2n[nH]c(=S)n2CCc2cccnc2)c(O)cc1O` [SH-a28, 5-(2,4-dihydroxy-5-isopropylphenyl)-4-(2-pyridin-3-ylethyl)-2,4-dihydro-[1,2,4]triazol-4-thione], for which the IC50 in test [1] (Homo sapiens, MCF7, 72 h) amounted to 7.2 µM; at rHSP90, 0.43 µM.

As for `CC(C)c1cc(-c2n[nH]c(=S)n2CC2CCCO2)c(O)cc1O` (centres unmarked) [SH-a31, 5-(2,4-dihydroxy-5-isopropylphenyl)-4-(tetrahydrofuran-2-ylmethyl)-2,4-dihydro-[1,2,4]triazol-3-thione], the 50% inhibitory concentration (IC50) is 0.55 µM in test [1] (Homo sapiens, MCF7, 72 h) and 0.31 µM at rHSP90.

Regarding `COCCn1c(-c2cc(C(C)C)c(O)cc2O)n[nH]c1=S` [SH-a32, 5-(2,4-dihydroxy-5-isopropyl-phenyl)-4-(2-methoxy-ethyl)-2,4-dihydro-[1,2,4]triazol-3-thione], the IC50 in test [1] (Homo sapiens, MCF7, 72 h) came out at 0.55 µM; at rHSP90 it was 0.24 µM.

In the case of `Oc1ccc(-c2nnc(S)n2-c2ccccc2)c(O)c1` [SH-b04, reference compound], the IC50 came out at 5.7 µM in test [1] (Homo sapiens, MCF7, 72 h) and 0.17 µM at rHSP90.

Consider `Cc1ccccc1-n1c(S)nnc1-c1ccc(O)cc1O` [SH-b05, reference compound], for which the IC50 stood at 9 µM in test [1] (Homo sapiens, MCF7, 72 h) and 0.2 µM at rHSP90.

`COc1ccc(OC)c(-n2c(S)nnc2-c2ccc(O)cc2O)c1` [SH-b06, reference compound]: the IC50 was 77 µM in test [1] (Homo sapiens, MCF7, 72 h) and 0.69 µM on rHSP90.

As for `CC#CCc1cc(-c2n[nH]c(=S)n2-c2ccc(CN3CCOCC3)cc2)c(O)cc1O` [SH-c02-TF, 4-(but-2-ynyl)-6-{5-mercapto-4-[4-morpholin-4-ylmethyl]-phenyl}-4H-[1,2,4]trioazol-3-yl]-benzene-1,3-diol trifluoroacetate], the IC50 in test [1] (Homo sapiens, MCF7, 72 h) was 0.48 µM; at rHSP90, 0.25 µM.
